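Exposure lasted 48 hours, with cells grown in 96-well plates and compounds tested at five concentrations. GI50 is the concentration that inhibits growth by half. TGI denotes the concentration required for complete inhibition of growth.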 Bounds are passed on as bounds.

Among the test systems are BT-549 breast; EKVX NSCLC; K-562 leukemia; LOX IMVI melanoma; MDA-MB-435; MOLT-4 leukemia; NCI-H460 lung; SF-268 CNS; SF-539 CNS; T-47D breast.
Common to all, as to assay: growth of human tumour cells (NCI), 48 h

Regarding `N#Cc1cc(F)cc(Oc2ccc(S(=O)(=O)C(F)F)c3c2CC(F)(F)[C@H]3O)c1`, the GI50 in the test on BT-549 breast was 22.3 µM; with EKVX NSCLC, 25.3 µM; with K-562 leukemia, 27.1 µM; with LOX IMVI melanoma it was 35 µM; in the test on MDA-MB-435 it was 37.7 µM; with MOLT-4 leukemia, 27.6 µM. Also, the GI50 with NCI-H460 lung was 42.1 µM; in the test with SF-268 CNS, 35.4 µM; in the test on SF-539 CNS it was 37 µM; with T-47D breast it was 16.3 µM. The TGI in the test with BT-549 breast, in the test with EKVX NSCLC, in the test on K-562 leukemia, with LOX IMVI melanoma, in the test with MDA-MB-435 and with MOLT-4 leukemia was greater than 100 µM each time. Also, the TGI in the test with NCI-H460 lung, in the test with SF-268 CNS, in the test on SF-539 CNS and in the test with T-47D breast was greater than 100 µM throughout.
On to `CC(=O)Oc1cc2c(cc1OCC(F)(F)F)[C@H]1CC[C@]3(C)[C@@H](OC(C)=O)CC[C@H]3[C@@H]1CC2=O`, for which the TGI in the test with BT-549 breast was greater than 77.7 µM; in the test with EKVX NSCLC, greater than 72.1 µM; in the test on K-562 leukemia, greater than 100 µM; in the test with LOX IMVI melanoma, greater than 78 µM; in the test on MDA-MB-435 it was greater than 72.1 µM; in the test on MOLT-4 leukemia, 38.8 µM. The TGI is greater than 100 µM in the test with NCI-H460 lung, greater than 77.4 µM with SF-268 CNS, 46.1 µM with SF-539 CNS and greater than 89.1 µM in the test on T-47D breast.
For the compound `CC[C@]1(c2ccc3c(c2)OCO3)C=[N+]([O-])O[C@H](OC2CCCC2(c2ccccc2)c2ccccc2)[C@@H]1OC(C)=O` (stereo not given in full), the TGI in the test with BT-549 breast was 8.43 µM; with EKVX NSCLC, 12.8 µM; with K-562 leukemia, greater than 100 µM; with LOX IMVI melanoma it was greater than 22.4 µM; with MDA-MB-435, 4.1 µM; in the test on MOLT-4 leukemia, greater than 19.8 µM. For the same compound, the TGI is 4.91 µM with NCI-H460 lung, 6.64 µM with SF-268 CNS, greater than 100 µM with SF-539 CNS and 10.2 µM in the test with T-47D breast.
For the compound `O=C(/C=C/c1ccccc1)c1cc(CN2CCOCC2)c(O)c(CN2CCOCC2)c1`, the TGI stood at 85.3 µM in the test with BT-549 breast; 98.5 µM in the test on EKVX NSCLC; 36.2 µM with K-562 leukemia; 19.5 µM with LOX IMVI melanoma; 32.3 µM with MDA-MB-435; 75.6 µM with MOLT-4 leukemia. Besides, the TGI amounted to 19.4 µM with NCI-H460 lung, 46.6 µM in the test with SF-268 CNS, 32.6 µM in the test on SF-539 CNS and 48 µM in the test with T-47D breast.
Consider `C[C@H]1CCC/C=C/[C@@H]2C[C@H](OC3OC(CO)C(O)C(O)C3O)C[C@H]2[C@H](O)/C=C/C(=O)O1` (stereo not given in full), for which the TGI in the test on BT-549 breast, in the test on EKVX NSCLC, in the test on K-562 leukemia, in the test on LOX IMVI melanoma, in the test on MDA-MB-435 and in the test on MOLT-4 leukemia was greater than 100 µM each time. Also, the TGI with NCI-H460 lung, in the test on SF-268 CNS, in the test on SF-539 CNS and in the test with T-47D breast was greater than 100 µM in each case.
On to `CC(C)OC(=O)C(NC(=O)C(CC(=O)OCc1ccccc1)NC(=O)OCc1ccccc1)NC(=O)C1C(C)(C)CCC1(C)C` (stereo not given), for which the TGI is 34.3 µM in the test on BT-549 breast; 12.2 µM with EKVX NSCLC; 15.9 µM with K-562 leukemia; 11.6 µM in the test on LOX IMVI melanoma; greater than 53.3 µM in the test on MDA-MB-435; greater than 51 µM in the test on MOLT-4 leukemia. In addition, the TGI was 31.6 µM in the test with NCI-H460 lung, 45.9 µM with SF-268 CNS, 13.1 µM in the test with SF-539 CNS and greater than 69.5 µM in the test on T-47D breast.
On to `Cn1c(CO)ccc1-c1ccc(-c2ccc(CO)[se]2)[se]1`, for which the TGI with BT-549 breast is greater than 91.4 µM; in the test with EKVX NSCLC, greater than 100 µM; in the test on K-562 leukemia, 98.5 µM; in the test on LOX IMVI melanoma, 41.2 µM; in the test on MDA-MB-435, 45.6 µM; with MOLT-4 leukemia, greater than 51.2 µM. The TGI in the test on NCI-H460 lung, in the test on SF-268 CNS, with SF-539 CNS and in the test on T-47D breast was greater than 100 µM in each case.
With `Cc1cc2nc(N3C(=O)/C(=C/Cc4ccco4)N=C3c3ccccc3)sc2cc1C`, the TGI in the test with BT-549 breast is greater than 100 µM; in the test with EKVX NSCLC, greater than 100 µM; in the test on K-562 leukemia, greater than 100 µM; with LOX IMVI melanoma, greater than 100 µM; with MDA-MB-435, 50.5 µM; in the test with MOLT-4 leukemia, greater than 100 µM. In addition, the TGI with NCI-H460 lung, in the test on SF-268 CNS, with SF-539 CNS and in the test with T-47D breast was greater than 100 µM each time.
Regarding `C/C(=N\NC(=S)NC(C)(C)C)c1nc2ncccc2[nH]1`, the TGI is 20.3 µM in the test on BT-549 breast; greater than 65 µM with EKVX NSCLC; greater than 100 µM with K-562 leukemia; greater than 100 µM with LOX IMVI melanoma; greater than 78.4 µM in the test on MDA-MB-435; 23.7 µM with MOLT-4 leukemia. Also, the TGI in the test with NCI-H460 lung is 55 µM; in the test on SF-268 CNS, greater than 31.6 µM; in the test with SF-539 CNS, 13.6 µM; in the test on T-47D breast, greater than 33.7 µM.
Regarding `COC(=O)[C@H](C)NC(=O)[C@H](NS(=O)(=O)c1nc2ccccc2s1)c1ccccc1`, the TGI in the test on BT-549 breast is greater than 100 µM; in the test on EKVX NSCLC it was greater than 100 µM; in the test on K-562 leukemia it was greater than 100 µM; in the test on LOX IMVI melanoma it was 31.9 µM; in the test with MDA-MB-435, greater than 100 µM; with MOLT-4 leukemia, greater than 100 µM. The TGI in the test on NCI-H460 lung was greater than 100 µM; in the test with SF-268 CNS it was 33.5 µM; with SF-539 CNS, 30.4 µM; in the test on T-47D breast, 32.4 µM.
Turning to `C[n+]1c2ccccc2n2c3ccccc3c(NCCCn3ccnc3)c(C#N)c21`, the TGI with BT-549 breast is greater than 100 µM; in the test on EKVX NSCLC it was 24.1 µM; in the test with K-562 leukemia it was greater than 26 µM; in the test with LOX IMVI melanoma it was 2.51 µM; in the test on MDA-MB-435, 9.4 µM; in the test with MOLT-4 leukemia, greater than 35.7 µM. The TGI in the test with NCI-H460 lung was 3.63 µM; with SF-268 CNS, 6.98 µM; in the test on SF-539 CNS it was 24.5 µM; with T-47D breast, greater than 19.6 µM.
In the case of `O=C(N/N=C/c1ccccc1)c1c(F)c(F)c(F)c(F)c1F`, the TGI in the test with BT-549 breast, in the test with EKVX NSCLC, in the test with K-562 leukemia, with LOX IMVI melanoma, in the test with MDA-MB-435 and in the test with MOLT-4 leukemia was greater than 100 µM throughout. For the same compound, the TGI in the test with NCI-H460 lung, in the test on SF-268 CNS, with SF-539 CNS and in the test on T-47D breast was greater than 100 µM each time.
Take `CCCCCCCCCCCC1=C(O)C(=O)C(CC2=C(O)C(=O)C(CCCCCCCCCCC)=C(O)C2=O)=C(O)C1=O`: the TGI with BT-549 breast, in the test with EKVX NSCLC, with K-562 leukemia, with LOX IMVI melanoma, in the test with MDA-MB-435 and with MOLT-4 leukemia was greater than 100 µM throughout. Also, the TGI in the test on NCI-H460 lung, in the test on SF-268 CNS, in the test with SF-539 CNS and in the test with T-47D breast was greater than 100 µM throughout.
As to `O=c1[nH]c2c(Nc3c4ccccc4nc4ccccc34)c([N+](=O)[O-])c(Nc3c4ccccc4nc4ccccc34)c([N+](=O)[O-])c2[nH]1`, the TGI in the test with BT-549 breast worked out at 20.6 µM; in the test with EKVX NSCLC, 5.2 µM; in the test on K-562 leukemia, 11.7 µM; in the test on LOX IMVI melanoma, 7.79 µM; with MDA-MB-435, 7.29 µM; in the test with MOLT-4 leukemia, 2.39 µM. Further, the TGI in the test on NCI-H460 lung is greater than 22.5 µM; with SF-268 CNS, 6.74 µM; in the test with SF-539 CNS it was 18.6 µM; in the test on T-47D breast, greater than 39.1 µM.
Take `CC1(C)CCC[C@@]2(C)C1CC[C@@]1(CO)O[C@H](C3=CC(=O)OC3O)C[C@H]12` (stereo not given in full): the TGI with BT-549 breast is 20.7 µM; in the test with EKVX NSCLC it was 60.3 µM; in the test with K-562 leukemia, 63.9 µM; with LOX IMVI melanoma, 3.42 µM; with MDA-MB-435, 24.6 µM; with MOLT-4 leukemia it was 11.5 µM. The TGI in the test on NCI-H460 lung is 38.8 µM; in the test on SF-268 CNS it was greater than 55.6 µM; in the test on SF-539 CNS, greater than 59.8 µM; in the test on T-47D breast it was 25.8 µM.
Take `Cn1c2c(c3c(=O)[nH]ncc31)Cc1ccccc1-2`: the TGI with BT-549 breast is 60.5 µM; in the test with EKVX NSCLC it was greater than 100 µM; in the test with K-562 leukemia, greater than 100 µM; in the test on LOX IMVI melanoma it was 75.1 µM; in the test on MDA-MB-435, 35.1 µM; in the test on MOLT-4 leukemia, greater than 100 µM. The TGI is 15.1 µM in the test on NCI-H460 lung, 94.2 µM in the test on SF-268 CNS, 78.7 µM in the test with SF-539 CNS and 78.2 µM in the test with T-47D breast.
Take `CC1=NC(=N)N=C(C)C1N=Nc1ccc2nc(C)[nH]c2c1` (stereo not given): the TGI with BT-549 breast, in the test with EKVX NSCLC, with K-562 leukemia, in the test with LOX IMVI melanoma, in the test with MDA-MB-435 and with MOLT-4 leukemia was greater than 100 µM in each case. In addition, the TGI with NCI-H460 lung, in the test with SF-268 CNS, in the test on SF-539 CNS and with T-47D breast was greater than 100 µM throughout.
With `COC1=C(OC)C(=O)C(Cc2c(Cl)nc3sccn23)=C(C)C1=O`, the TGI in the test with BT-549 breast was 27.5 µM; in the test with EKVX NSCLC it was 20.4 µM; in the test on K-562 leukemia, 34.1 µM; in the test on LOX IMVI melanoma it was 10.4 µM; in the test with MDA-MB-435 it was 21.8 µM; with MOLT-4 leukemia, 4.17 µM. Further, the TGI in the test on NCI-H460 lung came to 25.4 µM; with SF-268 CNS it was 30.4 µM; in the test with SF-539 CNS, 25 µM; in the test on T-47D breast, 17.8 µM.
As to `COc1cc(C=O)cc(C=Nc2ccc(Br)cc2)c1O`, the TGI is greater than 100 µM with BT-549 breast; greater than 100 µM in the test with EKVX NSCLC; greater than 100 µM in the test with K-562 leukemia; 29.8 µM with LOX IMVI melanoma; 32.5 µM in the test on MDA-MB-435; 62.4 µM with MOLT-4 leukemia. In addition, the TGI with NCI-H460 lung is 37.5 µM; in the test on SF-268 CNS it was 27.8 µM; in the test with SF-539 CNS, 7 µM; with T-47D breast, greater than 100 µM.
Consider `CCNC(=S)N/N=C(/C)c1cccc(/C(C)=N\NC(=S)NCC)n1`, for which the TGI in the test on BT-549 breast is greater than 100 µM; with EKVX NSCLC, greater than 52.7 µM; in the test on K-562 leukemia it was 26.3 µM; in the test on LOX IMVI melanoma it was 35.8 µM; with MDA-MB-435, greater than 100 µM; with MOLT-4 leukemia, 14.7 µM. For the same compound, the TGI in the test on NCI-H460 lung was 12.5 µM; in the test with SF-268 CNS it was greater than 100 µM; in the test with SF-539 CNS, 23.7 µM; in the test on T-47D breast it was greater than 45.4 µM.

These data come from PubChem BioAssay (NCI).
